Test results reported in patent publication US8455451B2, “2'-fluoro substituted carba-nucleoside analogs for antiviral treatment” (Gilead Sciences, Inc., priority 2009, dated 2013).
Read-outs that look alike come from different tables or passages of the source.

How the values were obtained:
HCV replicon cells = experiment: HCV EC50 determination, replicon luciferase assay; type: cell-based; conditions: Hepatitis C virus, 72 h
Method: Replicon cells were seeded in 96-well plates at a density of 8×10^3 cells per well in 100 μL of culture medium, excluding Geneticin. Compound was serially diluted in 100% DMSO and then added to the cells at a 1:200 dilution, achieving a final concentration of 0.5% DMSO and a total volume of 200 μL. Plates were incubated at 37° C. for 3 days, after which culture medium was removed and cells were lysed in lysis buffer provided by Promega's luciferase assay system. Following the manufacturer's instruction, 100 μL of luciferase substrate was added to the lysed cells and luciferase activity was measured in a TopCount luminometer.

[1] = system: Huh-luc/neo replicon cells; experiment: Metabolism study: intracellular triphosphate analog concentration; type: in vitro ADME; conditions: PD-A-8b to TP-8a versus B-7 to TP-3, Huh-luc/neo replicon cells
From the text: Applicants have observed that monophosphate prodrugs of nucleoside analogs with a nitrogen at the X^1 position can have enhanced activity over their counterparts with a carbon at the X^1 position. This difference in activity correlates to the amount of the active triphosphate analogs of the compounds in cells. This can be quantified by a metabolism study which quantifies the intracellular concentration of the triphosphate analogs. The higher intracellular concentration of the triphosphate metabolite correlates to the prodrug with enhanced activity.
Huh-luc/neo replicon cells containing HCV genotype 1b subgenomic replicons were maintained in Dulbecco's modified eagle medium containing glutamax supplemented with 10% heat inactivated fetal bovine serum, penicillin-streptomycin, and G418 disulphate salt solution. Cells were transferred to twelve well tissue culture plates by trypsonization and grown to confluency (0.88×10^6 cells/well). Cells were treated for 24 hours with 10 μM nucleoside, or 10 μM prodrug. After 24 hours, cells were washed 2 times with 2.0 mL ice cold 0.9% sodium chloride saline. […] Intracellular levels of the nucleoside triphosphates were quantified based on authentic standard curves by liquid chromatography coupled to tandem mass spectrometry.

[2] = target: T1, S282T mutant HCV Δ21 NS5b polymerase (Hepatitis C virus genotype 1b, UniProt Q9WMX2, S2701T); experiment: biochemical; conditions: for fold shift (S282T IC50 vs WT IC50): Note of Table II
T1 construct: 75 nM HCV Δ21 NS5b polymerase
Method: (§1) Assay Protocol: Either wild type or S282T (Migliaccio, et al, J. Biol. Chem. 2003, 49164-49170; Klumpp, et al., J. Biol. Chem. 2006, 3793-3799) mutant polymerase enzyme was used in this assay. NS5b polymerase assay (40 μL) was assembled by adding 28 μL, polymerase mixture (final concentration: 50 mM Tris-HCl at pH 7.5, 10 mM KCL, 5 mM MgCl2, 1 mM DTT, 10 mM EDTA, 4 ng/μL of RNA template, and 75 nM HCV Δ21 NS5b polymerase) to assay plates followed by 4 μL of compound dilution. The polymerase and compound were pre-incubated at 35° C. for 10 minute before the addition of 8 μL of nucleotide substrate mixture (33P-α-labeled competing nucleotide at KM and 0.5 mM of the remaining three nucleotides). The assay plates were covered and incubated at 35° C. for 90 min. Reactions were then filtered through 96-well DEAE-81 filter plates via vacuum. The filter plates were then washed under vacuum with multiple volumes of 0.125 M NaHPO4, water, and ethanol to remove unincorporated label. Plates were then counted on TopCount to assess the level of product synthesis over background controls. The IC50 value is determined using Prism fitting program.

[3] = target: T1, S282T mutant HCV Δ21 NS5b polymerase; conditions: value taken from the source in the Note column; cited from earlier work
[4] = target: T2, wild type HCV Δ21 NS5b polymerase (Hepatitis C virus genotype 1b, UniProt Q9WMX2); conditions: read-out: WT IC50, value taken from the source in the Note column; cited from earlier work
T2 construct: 75 nM HCV Δ21 NS5b polymerase

[5] = target: T2, wild type HCV Δ21 NS5b polymerase; experiment: HCV IC50 determination, NS5b polymerase assay, wild type enzyme; type: biochemical
Method: as §1

[6] = replicon cells, 3 days incubation, luciferase readout, read-out: EC50

SMILES: CCOC(=O)[C@H](C)NP(=O)(OC[C@H]1O[C@@H](c2cnc3c(N)ncnn23)[C@](C)(F)[C@@H]1O)Oc1ccccc1 (stereo partly shown) [PD-A-8b]
- EC50 (HCV replicon cells; [6]): 0.68 µM
- efficiency of activation of prodrug to its triphosphate analog, compared with B-7 [1]: more than two orders of magnitude more efficient

SMILES: CCOC(=O)[C@H](C)NP(=O)(OC[C@H]1O[C@@H](c2ccc3c(N)ncnn23)[C@](C)(F)[C@@H]1O)Oc1ccccc1 (stereo partly shown) [Compound B-7]
- EC50 (HCV replicon cells; [6]): 63 to 73 µM

SMILES: C[C@@]1(F)[C@@H]2OP(=O)(O)OC[C@H]2O[C@@]1(C#N)c1ccc2c(N)ncnn12 [Compound 23]
- EC50 (HCV replicon cells; [6]): 39.4 to 40.3 µM

SMILES: C[C@@]1(O)[C@H](O)[C@@H](COP(=O)(O)OP(=O)(O)OP(=O)(O)O)O[C@@]1(C#N)c1ccc2c(N)ncnn12 [triphosphate of (2R,3R,4R,5R)-2-(4-aminopyrrolo[1,2-f][1,2,4]triazin-7-yl)-3,4-dihydroxy-5-(hydroxymethyl)-3-methyl-tetrahydrofuran-2-carbonitrile]
- fold shift (S282T IC50 vs WT IC50) [2]: WO/2009/132135 (242 fold shift)
- IC50 [3]: 111 µM
- IC50 [4]: 0.525 µM

SMILES: C[C@@]1(F)[C@H](O)[C@@H](COP(=O)(O)OP(=O)(O)OP(=O)(O)O)O[C@@]1(C#N)c1ccc2c(N)ncnn12 [TP-2]
- IC50 [5]: 0.24 µM
- IC50 [2]: 1.6 µM
- fold shift (S282T IC50 vs WT IC50) [2]: (7 fold shift)

SMILES: CC(C)OC(=O)OCOP(=O)(OCOC(=O)OC(C)C)OC[C@H]1O[C@@](C#N)(c2ccc3c(N)ncnn23)[C@](C)(F)[C@@H]1O [Compound 10]
- EC50 (HCV replicon cells; [6]): 6.5 to 8 µM

SMILES: CCOC(=O)[C@H](CCSC)NP(=O)(OC[C@H]1O[C@@](C#N)(c2ccc3c(N)ncnn23)[C@](C)(F)[C@@H]1O)Oc1ccccc1 (stereo partly shown) [Compound C-2]
- EC50 (HCV replicon cells; [6]): 3.9 to 12 µM

SMILES: C[C@@]1(F)[C@H](O)[C@@H](COP(=O)(O)OP(=O)(O)OP(=O)(O)O)O[C@H]1c1cnc2c(=O)[nH]c(N)nn12 [TP-1]
- IC50 [5]: 0.15 µM
- IC50 [2]: 0.15 µM
- fold shift (S282T IC50 vs WT IC50) [2]: (1 fold shift)

SMILES: CCCCCCCOC(=O)[C@H](C)NP1(=O)OC[C@H]2O[C@@](C#N)(c3ccc4c(N)ncnn34)[C@](C)(F)[C@@H]2O1 (stereo partly shown) [Compound 25]
- EC50 (HCV replicon cells; [6]): 9.7 to 10 µM

SMILES: CC(C)(C)C(=O)SCCOP(=O)(OCCSC(=O)C(C)(C)C)OC[C@H]1O[C@@H](c2cnc3c(N)nc(N)nn23)[C@](C)(F)[C@@H]1O [Compound A-1]
- EC50 (HCV replicon cells; [6]): 23 µM

SMILES: C[C@@]1(F)[C@H](O)[C@@H](COP(=O)(O)OP(=O)(O)OP(=O)(O)O)O[C@H]1c1cnc2c(N)ncnn12
- IC50 [5]: 0.3 µM
- IC50 [2]: 1.6 µM
- fold shift (S282T IC50 vs WT IC50) [2]: (5.3 fold shift)

SMILES: CC(C)OC(=O)[C@H](C)NP(=O)(OC[C@H]1O[C@@](C#N)(c2ccc3c(N)ncnn23)[C@](C)(F)[C@@H]1O)Oc1ccccc1 (stereo partly shown) [Compound B-3]
- EC50 (HCV replicon cells; [6]): 16 to 28 µM

SMILES: CCOC(=O)[C@H](C)NP(=O)(OC[C@H]1O[C@@H](c2ccc3c(N)ncnn23)[C@](C)(F)[C@@H]1O)Oc1cccc2ccccc12 (stereo partly shown) [Compound B-8]
- EC50 (HCV replicon cells; [6]): 35 to 60 µM

SMILES: CCOC(=O)[C@H](CCS(C)(=O)=O)NP(=O)(OC[C@H]1O[C@@](C#N)(c2ccc3c(N)ncnn23)[C@](C)(F)[C@@H]1O)Oc1ccccc1 (stereo partly shown) [Compound C-6]
- EC50 (HCV replicon cells; [6]): 11 µM

SMILES: C[C@@]1(F)[C@H](O)[C@@H](COP(=O)(O)OP(=O)(O)OP(=O)(O)O)O[C@H]1c1ccc2c(N)ncnn12
- IC50 [5]: 0.034 µM

SMILES: CCOC(=O)[C@H](Cc1ccccc1)NP(=O)(OC[C@H]1O[C@@](C#N)(c2ccc3c(N)ncnn23)[C@](C)(F)[C@@H]1O)Oc1ccccc1 (stereo partly shown) [Compound C-4]
- EC50 (HCV replicon cells; [6]): 9.8 to 31 µM

SMILES: CC(C)OP1(=O)OC[C@H]2O[C@@](C#N)(c3ccc4c(N)ncnn34)[C@](C)(F)[C@@H]2O1 (stereo partly shown) [Compound 24]
- EC50 (HCV replicon cells; [6]): 40.3 to 70.5 µM

SMILES: CCC(CC)COC(=O)C(C)(C)NP(=O)(OC[C@H]1O[C@@](C#N)(c2ccc3c(N)ncnn23)[C@](C)(F)[C@@H]1O)Oc1ccccc1 (stereo partly shown) [Compound B-4]
- EC50 (HCV replicon cells; [6]): 8.4 to 19 µM

SMILES: CCOC(=O)[C@@H](NP(=O)(OC[C@H]1O[C@@](C#N)(c2ccc3c(N)ncnn23)[C@](C)(F)[C@@H]1O)Oc1ccccc1)C(C)C (stereo partly shown) [Compound C-1]
- EC50 (HCV replicon cells; [6]): 67 to 70 µM

SMILES: CCOC(=O)[C@H](Cc1c[nH]c2ccccc12)NP(=O)(OC[C@H]1O[C@@](C#N)(c2ccc3c(N)ncnn23)[C@](C)(F)[C@@H]1O)Oc1ccccc1 (stereo partly shown) [Compound C-3]
- EC50 (HCV replicon cells; [6]): 43 to 84 µM

SMILES: CCOC(=O)[C@H](C)NP(=O)(OC[C@H]1O[C@@](C#N)(c2ccc3c(N)ncnn23)[C@](C)(F)[C@@H]1O)Oc1cccc2ccccc12 (stereo partly shown) [Compound B-6]
- EC50 (HCV replicon cells; [6]): 3.75 to 11.1 µM

SMILES: C[C@@]1(F)[C@H](O)[C@@H](COP(=O)(O)NCCc2c[nH]c3ccccc23)O[C@@]1(C#N)c1ccc2c(N)ncnn12 [Compound 22]
- EC50 (HCV replicon cells; [6]): 31 to 45 µM

SMILES: CCOC(=O)[C@H](C)NP(=O)(OC[C@H]1O[C@@](C#N)(c2ccc3c(N)ncnn23)[C@](C)(F)[C@@H]1O)Oc1ccccc1 (stereo partly shown) [Compound B-1]
- EC50 (HCV replicon cells; [6]): 1.4 to 4.3 µM

SMILES: CCOC(=O)[C@@H]1CCCN1P(=O)(OC[C@H]1O[C@@](C#N)(c2ccc3c(N)ncnn23)[C@](C)(F)[C@@H]1O)Oc1ccccc1 (stereo partly shown) [Compound C-5]
- EC50 (HCV replicon cells): 24 to 28 µM

SMILES: CCOC(=O)CNP(=O)(OC[C@H]1O[C@@](C#N)(c2ccc3c(N)ncnn23)[C@](C)(F)[C@@H]1O)Oc1ccccc1 (stereo partly shown) [Compound B-5]
- EC50 (HCV replicon cells; [6]): 1.93 to 25.5 µM
